Laboratory results published in PubChem BioAssay AID1918946 (Molecular Pharmacology Branch, DTP, NCI, 2023).
pIC50: −log10 of the molar value.

Tested on: 885512-296-R-J2-PDC complex spheroid viability
Experiment: Anticancer human tumor 885512-296-R-J2-PDC patient-derived breast carcinoma cell line growth inhibition
Conditions: for pIC50: curve of first compound; for viability, T/C: stronger effect = lower value
Description: Multicellular complex tumor spheroid response to LSD1 Inhibitor Iadademstat in combination with a variety of drugs and investigational agents in selected tumor cell lines
The current study was undertaken to assess response to LSD1 inhibitors in combination with standard-of-care drugs and investigational agents in solid tumor complex spheroid models as well as in the K-562 leukemia. Complex spheroids include a stromal component modeled by human endothelial cells (HUVEC) and fibroblasts modeled by human mesenchymal stem cells (MSCs). The concentration ranges selected for each drug and investigational agent were based upon clinically achievable concentrations if the clinical Cmax of the agent was known.
Compounds. The drugs and investigational agents used in this study are listed on Table 1. All of the agents used, including staurosporine (NSC755774) and gemcitabine (NSC613327), were obtained from the Developmental Therapeutics Program, NCI. FDA-approved anticancer drugs are available from the NCI at http://dtp.nci.nih.gov/branches/dscb/oncology_drugset_explanation.html. Drugs and investigational agents were >95% pure by proton nuclear magnetic resonance (NMR) and liquid chromatography/mass spectrometry (LC/MS). Stock solutions were prepared at 400x in DMSO, stored at -70 degrees C, and diluted in fresh medium prior to their use. The final concentration of DMSO in cell culture wells never exceeded 0.25% (v/v). The FDA-approved anticancer drug set is available from the Developmental Therapeutics Program at https://dtp.cancer.gov/organization/dscb/obtaining/available_plates.htm. All drugs and investigational agents were tested over a range starting from a high concentration at or near the clinical Cmax and decreasing in half-log increments. If the clinical Cmax for an agent had not been determined, the highest concentration tested was 10 microM.
Cell Lines. The patient-derived cancer cell (PDC) lines: 292921-168-R-J2-PDC, K24384-001-R-PDC, and 521955-158-R2-J5-PDC pancreatic carcinomas, 556581-035-R-J1 ovarian carcinoma, 324938-238-R-J1-PDC, 855422-203-R-J1-PDC and 883617-216-R-J1-PDC urothelial bladder carcinomas, 743489-274-T-PDC renal cell carcinoma, 138582-R-J1 Merkel cell tumor, K60290-347-R-J1 and K57222-313-R-J1-PDC glioblastomas, 653999-131-R-J2-PDC, LG0703-F948-PDC, and 349418-098-R-PDC non-small cell lung carcinomas, 885512-296-R-J2-PDC, 171881-019-R-J1-PDC breast carcinomas and 186277-243-T-J2-PDC and 233499-124-R-J2-PDC colon carcinomas were obtained from the NCI Patient-Derived Models Repository (PDMR, https://pdmr.cancer.gov). The established cell lines NCI/ADR-RES (RRID:CVCL_14520 and OVCAR-5 (RRID:CVCL_1628) ovarian carcinomas, 786-O (RRID:CVCL_1051) and A498 (RRID:CVCL_A498) renal cell carcinoma, NCI-H211 (ATCC, cat. CRL-5824; RRID:CVCL_1529), NCI-H196 (ATCC, cat. CRL-5823, RRID:CVCL_1509), SW 1271 (ATCC, cat. CRL-2177, RRID:CVCL_1716) and NCI-H1876 (ATCC, cat. CRL-5902, RRID:CVCL_1503) small cell lung carcinomas, MDA-MB-231 (RRID:CVCL_0062) and MDA-MB-468 (RRID:CVCL_0419)breast carcinomas (10-12). Pooled donor human umbilical vein endothelial cells (HUVEC, Lonza, cat. CC-2519) and human mesenchymal stem cells (hMSC, Lonza, cat. PT-2501) were purchased from Lonza (Walkersville, MD).
Cell Culture. All cells were maintained in an incubator at 37 degrees C and 5% CO2 with 95% humidity. The PDC lines were cultured according to standard operating procedures established by the NCI PDMR (https://pdmr.cancer.gov). Briefly all PDCs were thawed and cultured in Matrigel-coated flasks prepared with a working solution of 1X Ham's F-12 nutrient mix, without supplementation (Invitrogen, Waltham, MA, cat. 11765054), 100 U/mL penicillin-streptomycin (Invitrogen, cat. 15140122), and 2.5% Matrigel (Corning Inc., Corning, NY, cat. 354248) for the first three passages. […]
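Further: spheroids exposed to agents for 7 days before viability read.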

Structure (SMILES): COc1cc(C2c3cc4c(cc3C(OC3OC5COC(C)OC5C(O)C3O)C3COC(=O)C23)OCO4)cc(OC)c1O (stereo not given) + NC1CC1c1ccc(-c2cccc(O)c2)cc1
- pIC50 (second compound 0.1 µM): 7.29
- pIC50 (second compound 0.316 µM): 7.32
- pIC50 (second compound 1 µM): 7.33
- pIC50 (second compound 3.16 µM): 7.45
- pIC50 (second compound 10 µM): 7.72
- viability, T/C (second compound 0.1 µM, first compound 0.00949 µM): 115%
- viability, T/C (second compound 0.1 µM, first compound 0.03 µM): 78.2%
- viability, T/C (second compound 0.1 µM, first compound 0.0949 µM): 18.4%
- viability, T/C (second compound 0.1 µM, first compound 0.3 µM): 5.27%
- viability, T/C (second compound 0.1 µM, first compound 0.949 µM): 3.81%
- viability, T/C (second compound 0.1 µM, first compound 3 µM): 3.41%
- viability, T/C (second compound 0.316 µM, first compound 0.00949 µM): 111%
- viability, T/C (second compound 0.316 µM, first compound 0.03 µM): 73.5%
- viability, T/C (second compound 0.316 µM, first compound 0.0949 µM): 17%
- viability, T/C (second compound 0.316 µM, first compound 0.3 µM): 4.71%
- viability, T/C (second compound 0.316 µM, first compound 0.949 µM): 3.36%
- viability, T/C (second compound 0.316 µM, first compound 3 µM): 2.8%
- viability, T/C (second compound 1 µM, first compound 0.00949 µM): 113%
- viability, T/C (second compound 1 µM, first compound 0.03 µM): 71%
- viability, T/C (second compound 1 µM, first compound 0.0949 µM): 16.5%
- viability, T/C (second compound 1 µM, first compound 0.3 µM): 5.06%
- viability, T/C (second compound 1 µM, first compound 0.949 µM): 4%
- viability, T/C (second compound 1 µM, first compound 3 µM): 3.54%
- viability, T/C (second compound 3.16 µM, first compound 0.00949 µM): 100%
- viability, T/C (second compound 3.16 µM, first compound 0.03 µM): 56%
- viability, T/C (second compound 3.16 µM, first compound 0.0949 µM): 17.2%
- viability, T/C (second compound 3.16 µM, first compound 0.3 µM): 3.77%
- viability, T/C (second compound 3.16 µM, first compound 0.949 µM): 3.77%
- viability, T/C (second compound 3.16 µM, first compound 3 µM): 2.6%
- viability, T/C (second compound 10 µM, first compound 0.00949 µM): 68.4%
- viability, T/C (second compound 10 µM, first compound 0.03 µM): 37.9%
- viability, T/C (second compound 10 µM, first compound 0.0949 µM): 9.86%
- viability, T/C (second compound 10 µM, first compound 0.3 µM): 3.55%
- viability, T/C (second compound 10 µM, first compound 0.949 µM): 3.7%
- viability, T/C (second compound 10 µM, first compound 3 µM): 3.37%

Structure (SMILES): Nc1ncn(C2CC(O)C(CO)O2)c(=O)n1 (stereo not given) + NC1CC1c1ccc(-c2cccc(O)c2)cc1
- pIC50 (second compound 0.1 µM): 7.11
- pIC50 (second compound 0.316 µM): 7.14
- pIC50 (second compound 1 µM): 7.06
- pIC50 (second compound 3.16 µM): 7.14
- pIC50 (second compound 10 µM): 7.33
- viability, T/C (second compound 0.1 µM, first compound 0.00316 µM): 116%
- viability, T/C (second compound 0.1 µM, first compound 0.01 µM): 106%
- viability, T/C (second compound 0.1 µM, first compound 0.0316 µM): 79%
- viability, T/C (second compound 0.1 µM, first compound 0.1 µM): 41.6%
- viability, T/C (second compound 0.1 µM, first compound 0.316 µM): 21.4%
- viability, T/C (second compound 0.1 µM, first compound 1 µM): 13.3%
- viability, T/C (second compound 0.316 µM, first compound 0.00316 µM): 106%
- viability, T/C (second compound 0.316 µM, first compound 0.01 µM): 112%
- viability, T/C (second compound 0.316 µM, first compound 0.0316 µM): 70.5%
- viability, T/C (second compound 0.316 µM, first compound 0.1 µM): 43.1%
- viability, T/C (second compound 0.316 µM, first compound 0.316 µM): 23.4%
- viability, T/C (second compound 0.316 µM, first compound 1 µM): 15.9%
- viability, T/C (second compound 1 µM, first compound 0.00316 µM): 107%
- viability, T/C (second compound 1 µM, first compound 0.01 µM): 99.4%
- viability, T/C (second compound 1 µM, first compound 0.0316 µM): 81.2%
- viability, T/C (second compound 1 µM, first compound 0.1 µM): 44.5%
- viability, T/C (second compound 1 µM, first compound 0.316 µM): 22.9%
- viability, T/C (second compound 1 µM, first compound 1 µM): 13.4%
- viability, T/C (second compound 3.16 µM, first compound 0.00316 µM): 95.5%
- viability, T/C (second compound 3.16 µM, first compound 0.01 µM): 103%
- viability, T/C (second compound 3.16 µM, first compound 0.0316 µM): 73.1%
- viability, T/C (second compound 3.16 µM, first compound 0.1 µM): 40.6%
- viability, T/C (second compound 3.16 µM, first compound 0.316 µM): 21.7%
- viability, T/C (second compound 3.16 µM, first compound 1 µM): 13.4%
- viability, T/C (second compound 10 µM, first compound 0.00316 µM): 72%
- viability, T/C (second compound 10 µM, first compound 0.01 µM): 69.5%
- viability, T/C (second compound 10 µM, first compound 0.0316 µM): 57.5%
- viability, T/C (second compound 10 µM, first compound 0.1 µM): 34.6%
- viability, T/C (second compound 10 µM, first compound 0.316 µM): 18.3%
- viability, T/C (second compound 10 µM, first compound 1 µM): 11.4%
